From US11497752B2, “Compounds and uses thereof” (Foghorn Therapeutics Inc., priority 2018, dated 2022)

What was measured:
[1] = biological target: BRM (Homo sapiens, UniProt P51531); assay: ATPase catalytic activity of BRM (ADP-Glo in vitro biochemical assay)
[2] = biological target: BRG-1 (Homo sapiens, UniProt P51532); assay: ATPase catalytic activity of BRG-1 (ADP-Glo in vitro biochemical assay)
BRG-1, sequence (P51532 whole entry): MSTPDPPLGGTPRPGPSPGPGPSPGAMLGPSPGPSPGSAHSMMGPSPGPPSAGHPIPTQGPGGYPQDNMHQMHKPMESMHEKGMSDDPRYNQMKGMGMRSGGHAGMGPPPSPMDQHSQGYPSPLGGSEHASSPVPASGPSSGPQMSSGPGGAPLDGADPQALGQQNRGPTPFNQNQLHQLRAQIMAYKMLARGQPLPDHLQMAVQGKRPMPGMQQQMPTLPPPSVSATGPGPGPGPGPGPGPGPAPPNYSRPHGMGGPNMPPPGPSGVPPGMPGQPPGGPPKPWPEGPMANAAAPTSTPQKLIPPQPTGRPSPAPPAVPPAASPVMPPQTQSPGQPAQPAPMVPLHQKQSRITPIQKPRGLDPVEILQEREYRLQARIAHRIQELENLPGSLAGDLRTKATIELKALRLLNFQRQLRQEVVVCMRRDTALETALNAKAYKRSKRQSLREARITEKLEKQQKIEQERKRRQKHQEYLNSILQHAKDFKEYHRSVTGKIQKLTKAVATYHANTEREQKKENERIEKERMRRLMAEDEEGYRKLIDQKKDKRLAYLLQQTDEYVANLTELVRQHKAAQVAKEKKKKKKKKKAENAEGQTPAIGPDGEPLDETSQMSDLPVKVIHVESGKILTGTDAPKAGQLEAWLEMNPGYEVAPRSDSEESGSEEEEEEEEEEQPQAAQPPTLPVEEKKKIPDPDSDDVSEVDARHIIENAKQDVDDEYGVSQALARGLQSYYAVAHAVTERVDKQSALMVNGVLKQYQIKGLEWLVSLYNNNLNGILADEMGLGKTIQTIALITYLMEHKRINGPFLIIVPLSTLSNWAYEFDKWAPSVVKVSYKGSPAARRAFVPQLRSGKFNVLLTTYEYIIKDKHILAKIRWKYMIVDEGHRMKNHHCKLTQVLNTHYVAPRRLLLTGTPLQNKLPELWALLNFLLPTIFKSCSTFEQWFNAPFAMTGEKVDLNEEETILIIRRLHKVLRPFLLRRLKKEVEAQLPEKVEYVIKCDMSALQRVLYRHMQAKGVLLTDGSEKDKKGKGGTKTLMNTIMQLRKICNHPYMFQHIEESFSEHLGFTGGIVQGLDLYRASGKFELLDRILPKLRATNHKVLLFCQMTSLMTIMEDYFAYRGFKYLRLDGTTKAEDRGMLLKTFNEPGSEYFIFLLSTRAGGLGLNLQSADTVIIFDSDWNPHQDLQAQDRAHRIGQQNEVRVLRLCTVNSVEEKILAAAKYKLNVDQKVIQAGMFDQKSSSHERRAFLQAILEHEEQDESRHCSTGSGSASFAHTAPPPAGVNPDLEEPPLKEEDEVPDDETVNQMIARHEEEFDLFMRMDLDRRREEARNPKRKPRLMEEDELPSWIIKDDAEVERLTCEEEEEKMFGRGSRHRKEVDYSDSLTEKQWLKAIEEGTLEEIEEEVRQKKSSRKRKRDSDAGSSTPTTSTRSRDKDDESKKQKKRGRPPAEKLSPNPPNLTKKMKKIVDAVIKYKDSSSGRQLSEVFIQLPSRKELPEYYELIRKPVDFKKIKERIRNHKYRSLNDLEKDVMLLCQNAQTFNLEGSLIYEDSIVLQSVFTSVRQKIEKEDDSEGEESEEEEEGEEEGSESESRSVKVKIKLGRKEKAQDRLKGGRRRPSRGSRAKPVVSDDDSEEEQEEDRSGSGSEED

BRM, sequence (P51531 whole entry): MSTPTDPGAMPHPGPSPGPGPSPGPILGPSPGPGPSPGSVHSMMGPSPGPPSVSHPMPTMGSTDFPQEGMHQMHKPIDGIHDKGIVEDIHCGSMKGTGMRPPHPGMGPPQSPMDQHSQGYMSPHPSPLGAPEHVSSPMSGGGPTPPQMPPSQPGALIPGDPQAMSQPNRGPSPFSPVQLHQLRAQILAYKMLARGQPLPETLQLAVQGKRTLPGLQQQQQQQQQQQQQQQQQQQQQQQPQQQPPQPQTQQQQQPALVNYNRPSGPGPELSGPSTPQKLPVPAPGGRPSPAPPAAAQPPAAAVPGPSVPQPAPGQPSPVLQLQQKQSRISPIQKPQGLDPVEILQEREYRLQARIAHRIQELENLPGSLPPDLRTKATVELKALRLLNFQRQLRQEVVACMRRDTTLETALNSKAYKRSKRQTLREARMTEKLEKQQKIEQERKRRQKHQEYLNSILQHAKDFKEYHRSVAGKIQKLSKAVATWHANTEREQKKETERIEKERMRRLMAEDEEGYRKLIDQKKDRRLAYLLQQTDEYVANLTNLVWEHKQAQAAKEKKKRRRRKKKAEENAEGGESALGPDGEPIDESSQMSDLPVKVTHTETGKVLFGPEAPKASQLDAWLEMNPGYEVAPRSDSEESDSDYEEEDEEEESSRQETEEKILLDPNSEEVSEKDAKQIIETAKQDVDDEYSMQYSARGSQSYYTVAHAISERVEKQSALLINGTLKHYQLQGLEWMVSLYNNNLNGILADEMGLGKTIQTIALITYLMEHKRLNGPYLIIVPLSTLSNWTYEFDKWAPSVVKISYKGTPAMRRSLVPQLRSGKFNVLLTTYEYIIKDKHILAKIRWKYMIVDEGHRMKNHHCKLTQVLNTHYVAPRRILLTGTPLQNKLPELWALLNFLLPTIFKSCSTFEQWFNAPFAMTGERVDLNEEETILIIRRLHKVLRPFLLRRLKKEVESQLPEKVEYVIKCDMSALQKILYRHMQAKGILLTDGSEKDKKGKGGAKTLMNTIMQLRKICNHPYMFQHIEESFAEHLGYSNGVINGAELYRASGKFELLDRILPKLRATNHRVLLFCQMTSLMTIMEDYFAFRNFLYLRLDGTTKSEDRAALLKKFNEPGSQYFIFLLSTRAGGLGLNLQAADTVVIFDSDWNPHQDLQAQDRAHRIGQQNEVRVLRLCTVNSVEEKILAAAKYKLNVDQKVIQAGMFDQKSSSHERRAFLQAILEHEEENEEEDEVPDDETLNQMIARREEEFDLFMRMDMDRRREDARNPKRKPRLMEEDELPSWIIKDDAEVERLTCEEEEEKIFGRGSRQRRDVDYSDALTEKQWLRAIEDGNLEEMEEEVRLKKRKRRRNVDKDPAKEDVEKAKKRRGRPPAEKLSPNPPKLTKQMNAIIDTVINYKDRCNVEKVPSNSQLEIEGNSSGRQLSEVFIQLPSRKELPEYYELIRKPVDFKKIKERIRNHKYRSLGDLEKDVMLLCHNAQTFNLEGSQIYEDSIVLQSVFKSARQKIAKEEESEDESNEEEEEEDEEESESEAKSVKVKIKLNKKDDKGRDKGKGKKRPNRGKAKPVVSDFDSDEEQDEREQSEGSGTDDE

| Compound | IC50 [1] [nM] | BRM Max % Inhibition ([1]; Table 6) [%] | IC50 [2] [nM] | BRG1 Max % Inhibition ([2]; Table 6) [%] | BRM Max % Inhibition ([1]; Table 5) [%] | BRG1 Max % Inhibition ([2]; Table 5) [%] |
| --- | --- | --- | --- | --- | --- | --- |
| N#Cc1ccc(-c2cccc(-c3csc(NC(=O)CNC(=O)c4ccc(N)cc4)n3)c2)cc1 [Compound 149, 4-amino-N-(2-((4-(4′-cyano-[1,1′-biphenyl]-3-yl)thiazol-2-yl)amino)-2-oxoethyl)benzamide] | < 100 | >80 | < 100 | >80 | – | – |
| CN(C)C(=O)c1cccc(C(=O)NCC(=O)Nc2nc(-c3ccccc3)cs2)c1 [Compound 78] | > 10000 | – | > 10000 | – | – | – |
| CSCC[C@H](NC(=O)c1cccc(C(C)(C)O)c1)C(=O)Nc1nc(-c2ccccc2)cs1 [Compound 55, (S)-3-(2-hydroxypropan-2-yl)-N-(4-(methylthio)-1-oxo-1-((4-phenylthiazol-2-yl)amino)butan-2-yl)benzamide] | 1000 to 10000 | – | 1000 to 10000 | – | >90 | >80 |
| Cn1ccc(-c2cccc(-c3csc(NC(=O)CNC(=O)c4ccc(N)cc4)n3)c2)cc1=O [Compound 140, 4-amino-N-(2-((4-(3-(1-methyl-2-oxo-1,2-dihydropyridin-4-yl)phenyl)thiazol-2-yl)amino)-2-oxoethyl)benzamide] | 100 to 1000 | >95 | 100 to 1000 | >90 | – | – |
| O=C(CNC(=O)c1cnc2c(c1)CCCN2)Nc1nc(-c2cccc(-c3ccncc3)c2)cs1 [Compound 102, N-(2-oxo-2-((4-(3-(pyridin-4-yl)phenyl)thiazol-2-yl)amino)ethyl)-5,6,7,8-tetrahydro-1,8-naphthyridine-3-carboxamide] | 100 to 1000 | >80 | 100 to 1000 | >80 | – | – |
| CC(C)(O)c1cccc(C(=O)NCC(=O)Nc2nc(-c3ccccc3)cs2)c1 [Compound 61, 3-(2-hydroxypropan-2-yl)-N-(2-oxo-2-((4-phenylthiazol-2-yl)amino)ethyl)benzamide] | 1000 to 10000 | – | 1000 to 10000 | – | >80 | >50 |
| CS(=O)(=O)c1cccc(C(=O)NCC(=O)Nc2nc(-c3cccc(C4CCOCC4)c3)cs2)c1 [Compound 91, 3-(methylsulfonyl)-N-(2-oxo-2-((4-(3-(tetrahydro-2H-pyran-4-yl)phenyl)thiazol-2-yl)amino)ethyl)benzamide] | 100 to 1000 | >95 | 1000 to 10000 | >90 | – | – |
| Cc1cccc(C)c1-c1csc(NC(=O)CNC(=O)c2cccc(S(=O)(=O)N(C)C)c2)n1 [Compound 29, N-[2-[[4-(2,6-dimethylphenyl)thiazol-2-yl]amino]-2-oxo-ethyl]-3-(dimethylsulfamoyl)benzamide] | > 10000 | – | > 10000 | – | >50 | >60 |
| CC(=O)NCc1ccc(-c2csc(NC(=O)CNC(=O)c3cccc(S(=O)(=O)N(C)C)c3)n2)cc1 [Compound 11, N-[2-[[4-[4-(acetamidomethyl)phenyl]thiazol-2-yl]amino]-2-oxo-ethyl]-3-(dimethylsulfamoyl)benzamide] | 1000 to 10000 | – | > 10000 | – | >80 | >70 |
| COC(=O)c1cccc(-c2csc(NC(=O)CNC(=O)c3cccc(S(=O)(=O)N(C)C)c3)n2)c1 [Compound 9, methyl 3-[2-[[2-[[3-(dimethylsulfamoyl)benzoyl]amino]acetyl]amino]thiazol-4-yl]benzoate] | < 1000 | – | < 1000 | – | >90 | >60 |
| CNc1ccc(C(=O)N[C@@H](CCSC)C(=O)Nc2nc(-c3ccccc3)cs2)cc1 [Compound 81, 4-(methylamino)-N-[(1S)-3-methylsulfanyl-1-[(4-phenylthiazol-2-yl)carbamoyl]propyl]benzamide] | < 1000 | – | < 1000 | – | >95 | >95 |
| CSCC[C@H](NC(=O)c1ccc(NS(C)(=O)=O)cc1)C(=O)Nc1nc(-c2ccccc2)cs1 [Compound 38, 4-(methanesulfonamido)-N-[(1S)-3-methylsulfanyl-1-[(4-phenylthiazol-2-yl)carbamoyl]propyl]benzamide] | > 10000 | – | > 10000 | – | >80 | >80 |
| CC(=O)NCc1ccc(-c2cccc(-c3csc(NC(=O)CNC(=O)c4ccc(N)cc4)n3)c2)cc1 [Compound 123, N-(2-((4-(4′-(acetamidomethyl)-[1,1′-biphenyl]-3-yl)thiazol-2-yl)amino)-2-oxoethyl)-4-aminobenzamide] | 100 to 1000 | >80 | 100 to 1000 | >80 | – | – |
| Nc1ccc(C(=O)NCC(=O)Nc2nc(-c3cccc(-c4ccccc4F)c3)cs2)cc1 [Compound 142, 4-amino-N-(2-((4-(2′-fluoro-[1,1′-biphenyl]-3-yl)thiazol-2-yl)\amino)-2-oxoethyl)benzamide] | 100 to 1000 | >90 | 100 to 1000 | >90 | – | – |

The next lines start with the values.

| IC50 [1] [nM] | BRM Max % Inhibition ([1]; Table 6) [%] | IC50 [2] [nM] | BRG1 Max % Inhibition ([2]; Table 6) [%] | BRM Max % Inhibition ([1]; Table 5) [%] | BRG1 Max % Inhibition ([2]; Table 5) [%] | Compound |
| --- | --- | --- | --- | --- | --- | --- |
| < 100 | >95 | < 100 | >95 | – | – | Nc1ccc(C(=O)NCC(=O)Nc2nc(-c3cccc(-c4ccnc(CO)c4)c3)cs2)cc1 [Compound 165, 4-amino-N-(2-((4-(3-(2-(hydroxymethyl)pyridin-4-yl)phenyl)thiazol-2-yl)amino)-2-oxoethyl)benzamide] |
| < 100 | >95 | < 100 | >95 | – | – | CNC(=O)CN(C)c1cc(-c2cccc(-c3csc(NC(=O)CNC(=O)c4ccc(N)cc4)n3)c2)ccn1 [Compound 202, 4-amino-N-[2-[[4-[3-[2-[methyl-[2-(methylamino)-2-oxo-ethyl]amino]-4-pyridyl]phenyl]thiazol-2-yl]amino]-2-oxo-ethyl]benzamide] |
| 100 to 1000 | >90 | 100 to 1000 | >90 | – | – | Nc1ccc(C(=O)NCC(=O)Nc2nc(-c3ccc4[nH]ncc4c3)cs2)cc1 [Compound 192] |
| < 100 | >95 | < 100 | >90 | – | – | CNC(=O)C1(c2cc(-c3cccc(-c4csc(NC(=O)CNC(=O)c5ccc(N)cc5)n4)c3)ccn2)CC1 [Compound 223, 4-amino-N-[2-[[4-[3-[2-[1-(methylcarbamoyl)cyclopropyl]-4-pyridyl]phenyl]thiazol-2-yl]amino]-2-oxo-ethyl]benzamide] |
| 100 to 1000 | >90 | 100 to 1000 | >95 | – | – | NCC1CC=C(c2cccc(-c3csc(NC(=O)CNC(=O)c4ccc(N)cc4)n3)c2)CC1 (stereo not shown) [Compound 158, 4-amino-N-(2-((4-(4′-(aminomethyl)-2′,3′,4′,5′-tetrahydro-[1,1′-biphenyl]-3-yl)thiazol-2-yl)amino)-2-oxoethyl)benzamide] |
| 100 to 1000 | >80 | 100 to 1000 | >80 | – | – | NC[C@H]1CC[C@H](c2cccc(-c3csc(NC(=O)CNC(=O)c4ccc(N)cc4)n3)c2)CC1 [Compound 174, 4-amino-N-(2-((4-(3-((1r,4r)-4-(aminomethyl)cyclohexyl)phenyl)thiazol-2-yl)amino)-2-oxoethyl)benzamide] |
| 100 to 1000 | >90 | 100 to 1000 | >95 | – | – | CO[C@H]1CCCN(c2cccc(-c3csc(NC(=O)CNC(=O)c4ccc(N)cc4)n3)c2)C1 [Compound 238, 4-amino-N-[2-[[4-[3-[(3S)-3-methoxy-1-piperidyl]phenyl]thiazol-2-yl]amino]-2-oxo-ethyl]benzamide] |
| 100 to 1000 | >90 | 100 to 1000 | >90 | – | – | Nc1ccc(C(=O)NCC(=O)Nc2nc(C3CCCN(c4cccnc4)C3)cs2)cc1 (stereo not shown) [Compound 173, 4-amino-N-(2-oxo-2-((4-(1-(pyridin-3-yl)piperidin-3-yl)thiazol-2-yl)amino)ethyl)benzamide] |
| < 100 | >95 | < 100 | >80 | – | – | Cc1ccc(-c2csc(NC(=O)CNC(=O)c3ccc(N)cc3)n2)cc1-c1ccncc1 [Compound 188, 4-amino-N-[2-[[4-[4-methyl-3-(4-pyridyl)phenyl]thiazol-2-yl]amino]-2-oxo-ethyl]benzamide] |
| 100 to 1000 | >95 | 100 to 1000 | >95 | – | – | CN(C)CCn1cc(-c2cccc(-c3csc(NC(=O)CNC(=O)c4ccc(N)cc4)n3)c2)ccc1=O [Compound 170, 4-amino-N-(2-((4-(3-(1-(2-(dimethylamino)ethyl)-6-oxo-1,6-dihydropyridin-3-yl)phenyl)thiazol-2-yl)amino)-2-oxoethyl)benzamide] |
| 100 to 1000 | >90 | 100 to 1000 | >90 | – | – | Nc1ccc(C(=O)NCC(=O)Nc2nc(-c3cccc(N4CCC[C@@H](O)C4)c3)cs2)cc1 [Compound 234, 4-amino-N-[2-[[4-[3-[(3R)-3-hydroxy-1-piperidyl]phenyl]thiazol-2-yl]amino]-2-oxo-ethyl]benzamide] |
| 100 to 1000 | >95 | 100 to 1000 | >95 | – | – | CC(C)(C(=O)O)n1ccc(-c2cccc(-c3csc(NC(=O)CNC(=O)c4ccc(N)cc4)n3)c2)n1 [Compound 212, 2-[3-[3-[2-[[2-[(4-aminobenzoyl)amino]acetyl]amino]thiazol-4-yl]phenyl]pyrazol-1-yl]-2-methyl-propanoic acid] |
| 100 to 1000 | >95 | 100 to 1000 | >80 | – | – | Nc1ccc(C(=O)NCC(=O)Nc2nc(-c3cccc(-c4ccn(CC(=O)O)n4)c3)cs2)cc1 [Compound 210, 2-[3-[3-[2-[[2-[(4-aminobenzoyl)amino]acetyl]amino]thiazol-4-yl]phenyl]pyrazol-1-yl]acetic acid] |
